# Source: PMC12769565, “Design, synthesis and biological activity of glycoconjugated ADAMTS5 exosite inhibitors: applications in osteoarthritis and ovarian cancer models” (Scientific Reports, 2025)
# Columns and labels:
# ADAMTS4 = target: T1, ADAMTS4 (Homo sapiens, UniProt O75173); assay: Versicanase assay (V1-5GAG, versikine sandwich ELISA); type: biochemical; conditions: 100 µM; compared to DMSO control
# T1 construct: Human recombinant full-length FLAG-tagged ADAMTS4 and ADAMTS5 were expressed in HEK293T cells; FLAG; made in house; host or cells: HEK293T cells
# T1 sequence (O75173 213-837): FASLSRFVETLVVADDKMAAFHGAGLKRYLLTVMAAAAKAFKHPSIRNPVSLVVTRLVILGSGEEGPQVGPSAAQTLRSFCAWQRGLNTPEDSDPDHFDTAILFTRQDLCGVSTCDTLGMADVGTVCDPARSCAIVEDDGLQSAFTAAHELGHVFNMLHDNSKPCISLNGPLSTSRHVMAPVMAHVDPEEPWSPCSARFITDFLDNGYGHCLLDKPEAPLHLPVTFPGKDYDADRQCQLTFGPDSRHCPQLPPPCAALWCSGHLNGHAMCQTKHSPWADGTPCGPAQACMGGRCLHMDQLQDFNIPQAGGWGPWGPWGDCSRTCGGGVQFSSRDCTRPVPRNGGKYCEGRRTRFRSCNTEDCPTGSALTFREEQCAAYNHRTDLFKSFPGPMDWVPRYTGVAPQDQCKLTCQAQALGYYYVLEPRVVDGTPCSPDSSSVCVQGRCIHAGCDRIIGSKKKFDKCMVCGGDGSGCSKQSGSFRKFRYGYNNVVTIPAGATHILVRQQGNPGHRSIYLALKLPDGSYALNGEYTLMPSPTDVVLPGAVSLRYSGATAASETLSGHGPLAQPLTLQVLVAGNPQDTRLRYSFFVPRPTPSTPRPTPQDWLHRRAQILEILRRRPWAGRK
# Procedure: (§1) Human recombinant full-length FLAG-tagged ADAMTS4 and ADAMTS5 were expressed in HEK293T cells (Thermo Fisher Scientific) and purified by anti-FLAG immunoaffinity chromatography as before. Concentrations of active proteases were determined by active-site titrations with known concentrations of TIMP-3 (Bio-Techne, 973-TM-010), using QF peptides as substrates. V1-5GAG, a truncated version of versican V1 isoform comprising residues 21–694 and containing a C-terminal 6x His tag[67], was expressed in HE293T cells and purified by immobilized metal affinity chromatography as before.
# (§2) Compounds 1–4 (100 µM) or DMSO were incubated with ADAMTS4 (5 nM) or ADAMTS5 (0.4 nM) for 2 h at 37 °C, before addition of V1-5GAG (50 nM). At each time point, reactions were stopped by addition of ethylenediaminetetraacetic acid and ADAMTS-generated versican fragments (versikine) quantified by sandwich ELISA as before[29],[30],[38] using anti-DPEAAE neoepitope antibody (Life Technologies, PA1-1748 A, 5 µg/ml) and polyclonal anti-versican antibody (Abcam, ab171887, 3 µg/ml). For each reaction, the amount of versikine generated was derived from a standard curve (0–1.56 nM) of V1-5GAG completely digested with ADAMTS5. Initial velocities were calculated from the concentration of versikine generated as a function of reaction time. Percent of inhibition was calculated from the DMSO control reactions. IC50 values were determined using the formula: vi/v0 = 1/(1 + [I]/IC50) where vi is the initial velocity of substrate cleavage in the presence of the inhibitor at concentration [I] and v0 is the initial velocity in the presence of an equal concentration (v/v) of DMSO.
# ADAMTS5 = target: T2, ADAMTS5 (Homo sapiens, UniProt Q9UNA0); assay: as above; type: biochemical
# T2 construct: Human recombinant full-length FLAG-tagged ADAMTS4 and ADAMTS5 were expressed in HEK293T cells; FLAG; made in house; host or cells: HEK293T cells
# T2 sequence (Q9UNA0 262-930): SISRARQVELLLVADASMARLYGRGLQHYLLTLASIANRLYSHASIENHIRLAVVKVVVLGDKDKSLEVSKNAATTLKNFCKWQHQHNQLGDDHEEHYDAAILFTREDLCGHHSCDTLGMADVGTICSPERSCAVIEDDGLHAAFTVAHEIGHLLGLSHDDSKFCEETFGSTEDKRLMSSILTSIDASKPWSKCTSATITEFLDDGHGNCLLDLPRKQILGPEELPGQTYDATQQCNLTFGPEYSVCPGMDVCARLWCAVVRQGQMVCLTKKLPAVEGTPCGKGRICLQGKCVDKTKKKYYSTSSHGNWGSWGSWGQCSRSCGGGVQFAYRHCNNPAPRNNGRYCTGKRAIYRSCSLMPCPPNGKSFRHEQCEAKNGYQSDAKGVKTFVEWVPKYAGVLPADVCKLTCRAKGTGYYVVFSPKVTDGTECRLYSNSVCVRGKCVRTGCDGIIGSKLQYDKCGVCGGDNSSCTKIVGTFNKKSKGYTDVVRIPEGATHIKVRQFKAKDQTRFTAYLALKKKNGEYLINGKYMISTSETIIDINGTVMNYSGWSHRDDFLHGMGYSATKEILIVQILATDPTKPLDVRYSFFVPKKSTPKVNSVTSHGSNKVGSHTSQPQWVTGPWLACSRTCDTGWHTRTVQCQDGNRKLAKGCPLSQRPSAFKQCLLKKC
# Procedure: as §1, §2
# A2780-Rab25 = assay: OC cell proliferation (DRAQ5 cell numbers); type: cell-based; conditions: 24 h
# Procedure: A2780-Rab25 (3,000 cells per well) were seeded in a 96-well plate and incubated with compound 2 (10 µM and 50 µM) or DMSO control for 24 h. Cells were fixed with 4% paraformaldehyde and stained with 5 µM DRAQ5 in PBS for 1 h at room temperature with gentle rocking. Cells were washed twice with PBS for 30 min and kept in PBS for imaging. […] was detected by the 700 nm channel (200 μm resolution) of a Licor Odyssey Sa instrument. The signal intensity (total intensity minus total background) of each well was quantified in Image Studio Lite software.
compound,measurement,setting,value
"CCC(C)N(Cc1cn(CCCO[C@@H]2O[C@H](CO)[C@@H](O[C@@H]3O[C@H](CO)[C@H](O)[C@H](O)[C@H]3O)[C@H](O)[C@H]2NC(C)=O)nn1)S(=O)(=O)c1ccc(-c2ccccc2)cc1 (stereo partly drawn) [compound 2, N-((2R,3R,4R,5 S,6R)-2-(3-(4-((N-(sec-butyl)-[1,1’-biphenyl]-4-sulfonamido)methyl)-1H-1,2,3-triazol-1-yl)propoxy)-4-hydroxy-6-(hydroxymethyl)-5-(((2 S,3R,4 S,5R,6R)-3,4,5-trihydroxy-6-(hydroxymethyl)tetrahydro-2 H-pyran-2-yl)oxy)tetrahydro-2 H-pyran-3-yl)acetamide]",inhibition of ADAMTS4 versicanase activity,ADAMTS4,sparing ADAMTS4
same,inhibition at 100 µM,"ADAMTS5; 100 µM, compared to DMSO control",76%
same,IC50 of compound 2 relative to parent compound 4b (higher),ADAMTS5; ADAMTS5 versicanase activity,~ 4 fold
same,IC50,ADAMTS5; read-out: IC50 for inhibition of ADAMTS5 versicanase activity,35 ± 4.8 µM
same,A2780-Rab25 cell numbers compared to DMSO control,A2780-Rab25; 10 µM,did not detect any significant difference
same,A2780-Rab25 cell numbers compared to DMSO control,A2780-Rab25; 50 µM,did not detect any significant difference
